In patent US20080318960A1, “PAR2-modulating compounds and their use” (priority 2005, published 2008):

Key:
Format in all cases: cell-based
human PAR2 [1] = molecular target: T1, human PAR2 (Homo sapiens, UniProt P55085); test: Receptor Selection and Amplification Technology (R-SAT) functional receptor assay; set-up: expressed in transfected cells; host or cells: NIH3T3 cells, pSI-derived mammalian expression vector; settings: for EC50: NIH3T3 cells transfected with PAR2, PAR2 activation, negative log of EC50 in Molar; for Emax: NIH3T3 cells transfected with PAR2, percent maximal activation relative to SLIGRL, read-out: % Efficacy
T1 sequence (P55085 26-397): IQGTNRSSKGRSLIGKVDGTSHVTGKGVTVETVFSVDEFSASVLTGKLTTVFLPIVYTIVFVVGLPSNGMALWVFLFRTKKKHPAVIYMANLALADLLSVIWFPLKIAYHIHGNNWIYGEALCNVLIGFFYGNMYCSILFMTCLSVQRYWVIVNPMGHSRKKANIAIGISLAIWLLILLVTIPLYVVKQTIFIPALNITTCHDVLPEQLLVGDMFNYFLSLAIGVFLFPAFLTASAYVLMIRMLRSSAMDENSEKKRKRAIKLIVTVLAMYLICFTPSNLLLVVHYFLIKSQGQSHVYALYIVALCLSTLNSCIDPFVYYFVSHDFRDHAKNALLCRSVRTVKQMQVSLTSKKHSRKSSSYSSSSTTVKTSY
Protocol: The functional receptor assay, Receptor Selection and Amplification Technology (R-SAT), was used to investigate the pharmacological properties of known and novel PAR2 compounds. R-SAT is disclosed in U.S. Pat. Nos. 5,707,798, 5,912,132, and 5,955,281, all of which are hereby incorporated herein by reference in their entirety, including any drawings.
Briefly, NIH3T3 cells were grown in 96 well tissue culture plates to 70-80% confluence. Cells were transfected for 16-20 h with plasmid DNAs using Polyfect (Qiagen Inc.) as per manufacturer's protocols. R-SATs were generally performed with 4 ng/well of receptor and 20 ng/well of β-galactosidase plasmid DNA. All receptor constructs used were in the pSI-derived mammalian expression vector (Promega Inc) as described previously. The PAR2 gene was amplified by PCR from genomic DNA using oligodeoxynucleotide primers based on the published sequence (GenBank Accession # Z49993 and Z49994). For large-scale transfections, cells were transfected for 16-20 h, then trypsinized and frozen in DMSO. Frozen cells were later thawed, plated at ˜10,000 cells per well of a 96 half-area well plate that contained drug. With both methods, cells were then grown in a humidified atmosphere with 5% ambient CO2 for five days. Media was then removed from the plates and marker gene activity was measured by the addition of the β-galactosidase substrate o-nitrophenyl β-D-galactopyranoside (ONPG, in PBS with 0.5% NP-40). The resulting colorimetric reaction was measured in a spectrophotometric plate reader (Titertek Inc.) at 420 nm. All data were analyzed using the computer program XLFit (IDBSm). Efficacy is the percent maximal activation compared to activation by a control compound, the PAR2 activating hexapeptide SLIGRL (serine-leucine-isoleucine-glycine-arginine-leucine). pEC50 is the negative of the log (EC50), where EC50 is the calculated concentration in Molar that produces 50% maximal activation.
These experiments provide a molecular profile, or fingerprint, for each of these agents at human PAR2.
Efficacy is relative to that of SLIGRL.

human PAR2 [2] = molecular target: T1, human PAR2; test: Determination of changes in cytosolic calcium in transfected CHO-K1 cells; settings: intracellular calcium mobilization; for EC50: CHO-K1 cells transfected with PAR2, Fura-2; for Emax: CHO-K1 cells transfected with PAR2, response compared to SLIGRL at 100 nM, read-out: % Efficacy
Protocol: 1. CHO-K1 cells transfected with PAR2 or a control receptor at a density 1-3×10^6 cells/ml are washed with phosphate-buffered saline.
2. Cells are loaded with 2 μM Fura-2 and analyzed with respect to the rise in intracellular calcium in the presence or absence of varying concentration of compound.
3. The response is compared to that elicited by the application of the standard reference ligand SLIGRL when tested at 100 nM.
Intracellular free calcium concentrations are calculated using the formula:
where Kd for Fura-2 is 224 nM, Fmax is the fluorescence in the presence of 0.04% Triton-X100 and Fmin is the fluorescence obtained after the addition of 5 mM EGTA in 30 mM Tris-HCl, pH7.4.
As shown in Table 2 and FIG. 3, these experiments have shown these agents act at human PAR2 to stimulate intracellular calcium mobilization.

human PAR2 [3] = molecular target: T1, human PAR2; test: Determination of changes in inositol phosphates in transfected tsA cells; settings: inositol phosphate hydrolysis, transfected tsA cells (transformed HEK293), 45 min with ligand; for Emax: TS/A, read-out: % Efficacy
Protocol: Seed tsA cells (a transformed HEK293 cell line) at 10,000 cells/0.1 ml per well of 96 well plates at 37 C in a humidified 5% CO2 incubator in DMEM supplemented with 10% fetal calf serum, penicillin (100 units/ml) and streptomycin ([…]) and grown overnight.
Transfect the cells with plasmid DNAs coding receptors or G-protein helpers when needed using PolyFect according to the RSAT protocol described previously. At 18-20 h post-transfection, the medium is removed and the cells are labeled overnight with 2 uCi/ml myo-[2-3H] inositol (0.1 ml/well) freshly made in the culture medium.
Remove the medium and wash cells with Hank's Balanced Salt Solutions (HBSS) containing 1 mM CaCl2, 1 mM MgCl2, 20 mM LiCl and 0.1% BSA. The cells are then incubated with ligands for 45 min at 37 C (0.1 ml/well) and the reaction is stopped by exchanging the buffer with 150 ul/well ice-cold 20 mM formic acid. Add 50 ul/well 0.2M ammonium and store plates at −80 C or process samples immediately.
To separate total [3H] inositol phosphates (IPs) ion-exchange chromatography columns are loaded with 200 ul of AG 1-X8 resin suspension (50% resin and 50% water) and the cell extracts were applied to the columns. Wash the columns with 1 ml 40 mM ammonium hydroxide (pH9) and elute [3H] IPs into the 2 ml deep-well blocks with 0.4 ml 2M ammonium format/0.1M formic acid. Wash the columns with 0.6 ml water. Transfer the eluates into 7 ml scintillation vials and add 5 ml liquid scintillation cocktail. Mix well, leave the vials in the dark for at least 4 h and count on LS 6500 Multi-purpose Scintillation Counter (3 min/vial). This procedure collects IP1, IP2 and IP3.
As shown in Table 3 and FIG. 4, these experiments have shown these agents act at human PAR2 to stimulate inositol phosphate hydrolysis.

Compound	EC50 (human PAR2 [1]) [nM]	Emax (human PAR2 [1]) [%]	EC50 (human PAR2 [2]) [nM]	Emax (human PAR2 [2]) [%]	Emax (human PAR2 [3]) [%]	EC50 (human PAR2 [3]) [nM]
C/C(=N\NC(=O)C(NC(=O)c1ccccc1)c1n[nH]c(=O)c2ccccc12)c1cccc(C(F)(F)F)c1 (stereo not drawn) [Compound 27, N-[2-oxo-1-(4-oxo-3,4-dihydro-1-phthalazinyl)-2-((2E)-2-{1-[3-(trifluoromethyl)phenyl]ethylidene}hydrazino)ethyl]benzamide]	251	77	–	–	–	–
COc1cccc(/C(C)=N/NC(=O)C(NC(=O)c2ccccc2)c2n[nH]c(=O)c3ccccc23)c1 (stereo not drawn) [Compound 6, N-[2-{(2E)-2-[1-(3-methoxyphenyl)ethylidene]hydrazino}-2-oxo-1-(4-oxo-3,4-dihydro-1-phthalazinyl)ethyl]benzamide]	794	79	–	–	–	–
C/C(=N\NC(=O)C(NC(=O)c1ccccc1)c1n[nH]c(=O)c2ccccc12)c1cccc(C#N)c1 (stereo not drawn) [Compound 29, N-[2-{(2E)-2-[1-(3-cyanophenyl)ethylidene]hydrazino}-2-oxo-1-(4-oxo-3,4-dihydro-1-phthalazinyl)ethyl]benzamide]	316	132	–	–	–	–
C/C(=N\NC(=O)C(NC(=O)c1ccccc1)c1n[nH]c(=O)c2ccccc12)c1cc(C)cc(C)c1 (stereo not drawn) [Compound 43, N-[2-{(2E)-2-[1-(3,5-dimethylphenyl)ethylidene]hydrazino}-2-oxo-1-(4-oxo-3,4-dihydro-1-phthalazinyl)ethyl]benzamide]	79.4	122	7940	85	130	10000
CC/C(=N\NC(=O)C(NC(=O)c1ccccc1)c1n[nH]c(=O)c2ccccc12)c1cccc(Br)c1 (stereo not drawn) [Compound 25, N-[2-{(2E)-2-[1-(3-bromophenyl)propylidene]hydrazino}-2-oxo-1-(4-oxo-3,4-dihydro-1-phthalazinyl)ethyl]benzamide]	501	111	–	–	–	–

Second part, the molecule after the results:

EC50 (human PAR2 [1]) [nM]	Emax (human PAR2 [1]) [%]	EC50 (human PAR2 [2]) [nM]	Emax (human PAR2 [2]) [%]	Emax (human PAR2 [3]) [%]	EC50 (human PAR2 [3]) [nM]	Compound
316	118	–	–	–	–	C/C(=N\NC(=O)C(NC(=O)c1ccccc1)c1n[nH]c(=O)c2ccccc12)c1cccc(C)c1 (stereo not drawn) [Compound 31, N-[2-{(2E)-2-[1-(3-methylphenyl)ethylidene]hydrazino}-2-oxo-1-(4-oxo-3,4-dihydro-1-phthalazinyl)ethyl]benzamide]
158	112	–	–	–	–	C/C(=N\NC(=O)C(NC(=O)c1ccccc1)c1n[nH]c(=O)c2ccccc12)c1cccc(Cl)c1 (stereo not drawn) [Compound 28, N-[2-{(2E)-2-[1-(3-chlorophenyl)ethylidene]hydrazino}-2-oxo-1-(4-oxo-3,4-dihydro-1-phthalazinyl)ethyl]benzamide]
126	98	3980	72	120	2510	C/C(=N\NC(=O)C(NC(=O)c1ccccc1)c1n[nH]c(=O)c2ccccc12)c1cccc(Br)c1 (stereo not drawn) [Compound 3, N-[2-{(2E)-2-[1-(3-bromophenyl)ethylidene]hydrazino}-2-oxo-1-(4-oxo-3,4-dihydro-1-phthalazinyl)ethyl]benzamide]
